Tests used:
[1] = Photophysical characterization (absorption, emission, QY, lifetime); format: physicochemical; details: in ACN
Description: UV–Vis absorption spectra were recorded on a Cary60 spectrometer. Photoemission spectra, luminescence lifetimes, and quantum yields were acquired with a HORIBA Jobin Yvon IBH Fluorolog-TCSPC spectrofluorometer equipped with a Quanta-φ integrating sphere. […] Emission-decay data were collected in 2048 channels to 10000 counts in the peak channel. IRF was measures using colloidal silica suspension in H2O to scatter light. Data were analyzed with the software DAS6 (TCSPC decay-analysis software) using a nonlinear least-squares method to fit of the decay to a sum of exponentials. The value of χ^2, residuals and the autocorrelation function (Durbin-Watson parameter) were used to determine the quality of the fit. For measurements in the presence of hDHODH, 11a was incubated, at 1 μM concentration in TRIS Buffer 0.1 mM (pH 8) with 0.1% DMSO, alone or with different concentrations of recombinant protein ranging from 31.5 to 504 nM concentration. After 5 min incubation UV–Vis absorption spectra were recorded on a Cary60 spectrophotometer and photoemission spectra were acquired with a HORIBA Jobin Yvon IBH Fluorolog-TCSPC spectrofluorometer with excitation λ of 366 nm and maximum of emission at 500 nm; a.u. data were analyzed with GraphPad Prism using One Site – Specific Binding equation.

[2] = Experimental pKa; format: physicochemical

Lifetime [1]: 7 ns | QY (luminescence quantum yield) [1]: 0.42 | Stokes shift [1]: 5139 cm^–1 | λabs [1]: 313 nm | λem [1]: 373 nm | pKa [2]: 5.39
SMILES: CCOC(=O)c1c(O)nn2ccccc12 [Compound 2, Ethyl 2-hydroxypyrazolo[1,5-a]pyridine-3-carboxylate]

Source: publication PMC12257544, “Fluorescent Isostere (Fluostere) of the Carboxylate: Design of hDHODH Fluorescent Inhibitors as Proof of Concept” (Journal of Medicinal Chemistry, 2025)
